In PubChem BioAssay (NCI):
Several values for one entry are separate records, joined by “and”; a condition that tells them apart may be missing. Identical values can stand only once.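 How tested: cells in 96-well plates exposed to compound for 48 hours at five concentrations. At the GI50, growth is halved. Definition used: TGI = concentration required for complete inhibition of growth.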

Assays:
Assay in all cases: DTP human tumour cell line panel, 48 h
[1] = tested on: OVCAR-3 ovarian
[2] = tested on: SK-MEL-28 melanoma
[3] = tested on: K-562 leukemia
[4] = tested on: SR leukemia
[5] = tested on: KM12 colon
[6] = tested on: NCI-H23 lung
[7] = tested on: OVCAR-8 ovarian
[8] = tested on: UO-31 renal
[9] = tested on: RXF 393 renal
[10] = tested on: SF-268 CNS

Row | Compound | GI50 [1] [µM] | TGI [1] [µM] | GI50 [2] | TGI [2] | GI50 [3] [µM] | TGI [3] [µM] | GI50 [4] [µM] | TGI [4] [µM] | GI50 [5] [µM] | TGI [5] | GI50 [6] [µM] | TGI [6] | GI50 [7] | TGI [7] | GI50 [8] | TGI [8] | GI50 [9] [µM] | TGI [9] | GI50 [10] | TGI [10]
1 | CC(C)n1nc(-c2cc3cc(O)ccc3[nH]2)c2c(N)ncnc21 | 0.22 | 2.75 | 0.12 µM | 1.67 µM | 0.579 | 36.1 | 0.191 | 2.93 | 0.307 | 10.8 µM | 0.317 | 9.19 µM | 0.314 µM | 3.21 µM | 0.0464 µM | 0.726 µM | 0.121 | 0.661 µM | 0.224 µM | 4.78 µM
2 | CC(C)(C)c1cc(Br)c(O)c(CN(Cc2cc(C(C)(C)C)cc(Br)c2O)C2CCCCC2)c1 |  | 24.2 |  | 28.9 µM |  | 28.3 |  | 25.6 |  | 29.4 µM |  | 26.3 µM |  | 28.3 µM |  | 27.4 µM |  | 22.6 µM |  | 26.4 µM
3 | COC(=O)/C(=N\Nc1nnc(C)n1N)C(C#N)c1ccc(Cl)cc1 (centres undefined) |  | > 100 |  | > 100 µM |  |  |  |  |  | > 100 µM |  | > 100 µM |  | > 100 µM |  | > 100 µM |  | > 100 µM |  | > 100 µM
4 | O=C1C2C3C=C4c5ccccc5N(c5ccccc5)C4(C2C(=O)N1Cc1ccccc1)C1C(=O)N(Cc2ccccc2)C(=O)C31 (centres undefined) |  |  |  | > 100 µM |  | > 100 |  | > 100 |  | > 100 µM |  | > 100 µM |  | > 100 µM |  | > 100 µM |  |  |  | > 100 µM
5 | Cc1cn(C2CC(N(O)Cc3ccccc3)C(CO[Si](C)(C)C(C)(C)C)O2)c(=O)[nH]c1=O (centres undefined) |  | 32 | 37.5 µM and 16.9 µM | > 100 µM and 30.8 µM |  | > 100 |  | 89.4 |  | 51.7 µM and 31 µM |  | 66.3 µM and 31.3 µM |  | 84.1 µM and 32 µM | 32.6 µM and 12.3 µM | > 100 µM and 24.9 µM |  | 26.8 µM | 34.6 µM and 16.7 µM | > 100 µM and 31 µM
6 | CS/C(N)=N\NC(=O)CCC(=O)Nc1ccccc1C(F)(F)F |  | > 100 |  | > 100 µM |  | > 100 |  | > 100 |  | > 100 µM |  | > 100 µM |  | > 100 µM |  | > 100 µM |  | > 100 µM |  | > 100 µM
7 | O=C(NC1=CC(=O)c2ccccc2C1=O)c1ccccc1 | 0.685 | 2.01 | 0.841 µM | 15.3 µM | 0.694 | > 100 | 0.709 | 4.85 | 0.353 | 11.5 µM | 1.12 | 9.5 µM | 1.67 µM | 5.63 µM | 0.481 µM | 2.18 µM | 1.4 | 3.12 µM | 1.21 µM | 13.8 µM
8 | Nn1c(=O)n(Cc2ccccc2)n(-c2ccccc2)c1=O |  | > 100 |  | > 100 µM |  | > 100 |  | > 100 |  | > 100 µM |  | > 100 µM |  | > 100 µM |  | > 100 µM |  | > 100 µM |  | > 100 µM
9 | COC(C(O)CO)C(O)C(O)C(=O)NNc1ccccc1 (centres undefined) |  | > 100 |  | > 100 µM |  | > 100 |  | > 100 |  | > 100 µM |  | > 100 µM |  | > 100 µM |  | > 100 µM |  | > 100 µM |  | > 100 µM
10 | CN1C(=O)c2cccc3cc([N+](=O)[O-])cc(c23)C1=O |  | > 10 |  | > 10 µM |  | > 10 |  | > 10 |  | > 10 µM |  | > 10 µM |  | > 10 µM |  |  |  |  |  | > 10 µM
11 | CC1(C)SCc2nc3ncccc3n21 |  | > 100 |  | > 100 µM |  | > 100 |  |  |  | > 100 µM |  | > 100 µM |  | > 100 µM |  | > 100 µM |  | > 100 µM |  | > 100 µM
12 | O=C(N/N=C/c1ccc(Cl)cc1)c1ccc(C(F)(F)F)nc1Nc1cccc(C(F)(F)F)c1 | 1.11 | 6.9 | 2.54 µM | 10.3 µM | 3.15 | > 35.9 | 0.879 | 5.71 | 2.31 | 8.4 µM | 2.31 | 8.74 µM | 2.23 µM | 15.1 µM | 1.66 µM | 5.42 µM |  |  | 1.14 µM | 8.29 µM
13 | CCC[CH2][Sn]1([CH2]CCC)[O]CC(CN2CCCC2)[O]1 (centres undefined) | 13 | 25.7 | 19 µM | 34.9 µM | 4.24 | 21.4 | 10.4 | 39.5 | 16.1 | 36.4 µM | 11.6 | 27.7 µM | 14.1 µM | 29.4 µM | 17 µM | 31.3 µM | 22.4 | 37.8 µM |  | 
14 | COc1cc2c(c(OC)c1OC)-c1ccc(OC)c(=O)cc1[C@@H](NC(=O)c1ccccc1)CC2 | < 0.003 |  | < 0.003 µM | 30 µM and > 100 µM | < 0.003 |  |  | > 100 |  | 1.14 µM |  | 2.32 µM | 0.00935 µM and 0.0138 µM | 30 µM and 13.8 µM | > 30 µM | > 100 µM | < 0.003 | 8.22 µM and 3.18 µM |  | 33.1 µM
15 | COC1=C(C)C(=O)c2c(c(COC(N)=O)c3n2CC2C3N2C)C1=O (centres undefined) |  | 0.0987 |  | 0.173 µM |  | 0.341 |  | < 0.0354 |  | 0.143 µM |  | < 0.0363 µM |  | 0.216 µM |  | 0.232 µM |  | 0.0671 µM |  | 0.6 µM
16 | CCOc1ccccc1NC(=O)CC(C(=O)OC)C(=O)C(=O)OC (centres undefined) |  | > 100 |  | > 100 µM |  | > 100 |  | > 100 |  | > 100 µM |  | > 100 µM |  | > 100 µM |  | > 100 µM |  | > 100 µM |  | > 100 µM
17 | COc1ccccc1CNCCCN1C(=O)c2ccc3c4c(ccc(c24)C1=O)C(=O)N(CCCOCCCCOCCCN)C3=O | 0.297 | 0.754 | 1.59 µM | 3.05 µM |  |  | 0.348 | 3.87 | 1.26 | 2.79 µM | 0.604 | 2.58 µM | 0.473 µM | 2.08 µM | 1.55 µM | 3.15 µM | 0.771 | 2.2 µM | 1.42 µM | 3.63 µM
